Measurements published in patent US20230355647A1, “Marker for determining anti-cancer effects of mitochondrial oxidative phosphorylation pathway inhibitor” (NANJING SHIJIANG MEDICINE TECHNOLOGY CO., LTD, priority 2020, published 2023).

Columns and labels:
MDA-MB-453 = test: Cell viability (CellTiter-Glo), MDA-MB-453; format: cell-based; conditions: Homo sapiens; MDA-MB-453 cell line, 3-4 days of culture
Method: (§1) Cell viability was detected using the Promega CellTiter-Glo kit, the kit reflected cell viability by directly measuring intracellular ATP content. The inhibitory effect (IC50 value) of Gboxin, a mitochondrial oxidative phosphorylation pathway inhibitor, on different tumor cell lines was tested in the Example. The name, source, and culture condition of each tumor cell line were as follows: Cell line MDA-MB-453 (ATCC, No. HTB-131) was cultured in 10% fetal bovine serum-containing Leibovitz's L-15 medium (+P/S). […] Cell viability was detected using the Promega CellTiter-Glo kit, the kit reflected cell viability by directly measuring intracellular ATP content.

OCI-AML-3 = test: Cell viability (CellTiter-Glo), OCI-AML-3; format: cell-based; conditions: Homo sapiens; OCI-AML-3 cell line, 3-4 days of culture
Method: (§2) Cell viability was detected using the Promega CellTiter-Glo kit, the kit reflected cell viability by directly measuring intracellular ATP content. The inhibitory effect (IC50 value) of Gboxin, a mitochondrial oxidative phosphorylation pathway inhibitor, on different tumor cell lines was tested in the Example. The name, source, and culture condition of each tumor cell line were as follows:
Cell line OCI-AML-3 (DSMZ, No. ACC-582) was cultured in 20% fetal bovine serum-containing RPMI1640 medium (+P/S).
(§3) The above tumor cells were cultured in the relevant medium (+P/S), and incubated for 3 h, then the gradient diluted Gboxin was added, and IC50 (50% inhibiting concentration) was measured after 3-4 days of culture.

CCRF-CEM = test: Cell viability (CellTiter-Glo), CCRF-CEM; format: cell-based; conditions: Homo sapiens; CCRF-CEM cell line, 3-4 days of culture
Method: as §2
Cell line CCRF-CEM (ATCC, No. CCL-119) was cultured in 10% fetal bovine serum-containing RPMI1640 medium (+P/S).
as §3

HCC1806 = test: Cell viability (CellTiter-Glo), HCC1806; format: cell-based; conditions: Homo sapiens; HCC1806 cell line, 3-4 days of culture
Method: as §2
Cell line HCC1806 (ATCC, No. CRL-2335) was cultured in 10% fetal bovine serum-containing RPMI1640 medium (+P/S).
as §3

BT-549 = test: Cell viability (CellTiter-Glo), BT-549; format: cell-based; conditions: Homo sapiens; BT-549 cell line, 3-4 days of culture
Method: as §2
Cell line BT-549 (ATCC, No. HTB-122) was cultured in RPMI1640 medium containing 10% fetal bovine serum and 0.023 IU/ml human insulin (+P/S).
as §3

H9 = test: Cell viability (CellTiter-Glo), H9; format: cell-based; conditions: Homo sapiens; H9 cell line, 3-4 days of culture
Method: as §2
Cell line H9 (ATCC, No. HTB-176) was cultured in 10% fetal bovine serum-containing RPMI1640 medium (+P/S).
as §3

GAK = test: Cell viability (CellTiter-Glo), GAK; format: cell-based; conditions: GAK cell line, 3-4 days of culture
Method: as §2
Cell line GAK (JCRB, No. JCRB0180) was cultured in 20% fetal bovine serum-containing Ham's F12 medium (+P/S).
as §3

CHL-1 = test: Cell viability (CellTiter-Glo), CHL-1; format: cell-based; conditions: Homo sapiens; CHL-1 cell line, 3-4 days of culture
Method: as §2
Cell line CHL-1 (ATCC, No. CRL-9446) was cultured in 10% fetal bovine serum-containing DMEM medium (+P/S).
as §3

DU 145 = test: Cell viability (CellTiter-Glo), DU 145; format: cell-based; conditions: Homo sapiens; DU 145 cell line, 3-4 days of culture
Method: as §2
Cell line DU 145 (ATCC, No. HTB-81) was cultured in 10% fetal bovine serum-containing EMEM medium (+P/S).
as §3

AM-38 = test: Cell viability (CellTiter-Glo), AM-38; format: cell-based; conditions: Homo sapiens; AM-38 cell line, 3-4 days of culture
Method: as §2
Cell line AM-38 (JCRB, No. IF050492) was cultured in EMEM medium containing 20% heat-inactivated fetal bovine serum (+P/S).
as §3

Gp2D = test: Cell viability (CellTiter-Glo), Gp2D; format: cell-based; conditions: Homo sapiens; Gp2D cell line, 3-4 days of culture
Method: as §2
Cell line Gp2D (ECACC, No. 95090714) was cultured in 10% fetal bovine serum-containing DMEM medium (+P/S).
as §3

SU.86.86 = test: Cell viability (CellTiter-Glo), SU.86.86; format: cell-based; conditions: Homo sapiens; SU.86.86 cell line, 3-4 days of culture
Method: as §2
Cell line SU.86.86 (ATCC, No. CRL-1837) was cultured in 10% fetal bovine serum-containing RPMI1640 medium (+P/S).
as §3

MDA-MB-231 = test: Cell viability (CellTiter-Glo), MDA-MB-231; format: cell-based; conditions: Homo sapiens; MDA-MB-231 cell line, 3-4 days of culture
Method: as §2
Cell line MDA-MB-231 (ATCC, No. HTB-26) was cultured in 10% fetal bovine serum-containing Leibovitz's L-15 medium (+P/S).
as §3

NCI-H1651 = test: Cell viability (CellTiter-Glo), NCI-H1651; format: cell-based; conditions: Homo sapiens; NCI-H1651 cell line, 3-4 days of culture
Method: as §2
Cell line NCI-H1651 (ATCC, No. CRL-5884) was cultured in 10% fetal bovine serum-containing ACL-4 medium (+P/S).
as §3

786-O = test: Cell viability (CellTiter-Glo), 786-O; format: cell-based; conditions: Homo sapiens, 786-0; 786-O cell line, 3-4 days of culture
Method: as §1, with “786-O” for “MDA-MB-453”, “CRL-1932)” for “HTB-131)”, “RPMI1640” for “Leibovitz's L-15”

[1] = system: brain tumors and other tumors; conditions: study published in Nature (2019); cited from earlier work

CCc1n(CC(=O)O[C@@H]2C[C@H](C)CC[C@H]2C(C)C)c2ccccc2[n+]1C.[Cl-] [Gboxin]
IC50 (MDA-MB-453): 0.942 µM
IC50 (OCI-AML-3): 1.46 µM
IC50 (CCRF-CEM): 2.59 µM
IC50 (HCC1806): 3.18 µM
IC50 (BT-549): 3.28 µM
IC50 (H9): 3.34 µM
IC50 (GAK): 7.05 µM
IC50 (CHL-1): 7.68 µM
IC50 (DU 145): 9.91 µM
IC50 (AM-38): 10.3 µM
IC50 (Gp2D): 13.3 µM
IC50 (SU.86.86): 13.7 µM
IC50 (MDA-MB-231): 17.8 µM
IC50 (NCI-H1651): 22.4 µM
IC50 (786-O): > 30 µM
killing effect on brain tumors and other tumors [1]: excellent killing effect
